{
  "source": "paper PMC3037030",
  "about": "(Biochimica et biophysica acta, 2010)",
  "key": {"[1]": {"target": "T1, Acsl4 (Rattus norvegicus, UniProt O35547)", "T1 sequence (O35547 whole entry)": "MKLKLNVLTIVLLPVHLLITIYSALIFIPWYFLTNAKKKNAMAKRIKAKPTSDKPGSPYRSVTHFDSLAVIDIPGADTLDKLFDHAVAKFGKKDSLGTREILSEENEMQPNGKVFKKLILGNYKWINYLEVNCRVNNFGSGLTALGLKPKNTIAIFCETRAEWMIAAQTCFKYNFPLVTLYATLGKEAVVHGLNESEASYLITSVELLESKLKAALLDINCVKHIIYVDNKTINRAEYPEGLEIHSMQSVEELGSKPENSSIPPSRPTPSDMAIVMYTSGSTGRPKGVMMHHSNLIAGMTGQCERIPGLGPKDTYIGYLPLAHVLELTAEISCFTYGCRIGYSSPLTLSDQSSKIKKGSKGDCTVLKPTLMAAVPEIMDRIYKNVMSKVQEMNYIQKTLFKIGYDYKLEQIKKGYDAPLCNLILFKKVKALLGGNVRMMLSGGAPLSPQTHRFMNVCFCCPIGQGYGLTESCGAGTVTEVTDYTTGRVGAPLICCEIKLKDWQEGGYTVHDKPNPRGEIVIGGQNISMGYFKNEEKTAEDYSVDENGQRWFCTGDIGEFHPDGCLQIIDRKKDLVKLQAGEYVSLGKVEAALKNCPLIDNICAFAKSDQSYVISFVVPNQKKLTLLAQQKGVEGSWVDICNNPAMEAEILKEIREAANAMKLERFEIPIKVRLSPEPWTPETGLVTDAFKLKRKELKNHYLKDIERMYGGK", "experiment": "radiometric acyl-CoA synthetase assay", "assay_type": "biochemical", "details": "read-out: Substrate / AA"}, "[2]": {"target": "T1, Acsl4", "experiment": "radiometric acyl-CoA synthetase assay", "assay_type": "biochemical"}, "[3]": {"target": "T1, Acsl4", "assay_type": "biochemical"}, "[4]": {"target": "T1, Acsl4", "experiment": "radiometric acyl-CoA synthetase assay, […] inhibition at […]", "assay_type": "cell-based", "details": "read-out: % inhibition at 10 μM"}, "[5]": {"target": "Acsl3 (Rattus norvegicus, UniProt Q63151)", "sequence (Q63151 whole entry)": "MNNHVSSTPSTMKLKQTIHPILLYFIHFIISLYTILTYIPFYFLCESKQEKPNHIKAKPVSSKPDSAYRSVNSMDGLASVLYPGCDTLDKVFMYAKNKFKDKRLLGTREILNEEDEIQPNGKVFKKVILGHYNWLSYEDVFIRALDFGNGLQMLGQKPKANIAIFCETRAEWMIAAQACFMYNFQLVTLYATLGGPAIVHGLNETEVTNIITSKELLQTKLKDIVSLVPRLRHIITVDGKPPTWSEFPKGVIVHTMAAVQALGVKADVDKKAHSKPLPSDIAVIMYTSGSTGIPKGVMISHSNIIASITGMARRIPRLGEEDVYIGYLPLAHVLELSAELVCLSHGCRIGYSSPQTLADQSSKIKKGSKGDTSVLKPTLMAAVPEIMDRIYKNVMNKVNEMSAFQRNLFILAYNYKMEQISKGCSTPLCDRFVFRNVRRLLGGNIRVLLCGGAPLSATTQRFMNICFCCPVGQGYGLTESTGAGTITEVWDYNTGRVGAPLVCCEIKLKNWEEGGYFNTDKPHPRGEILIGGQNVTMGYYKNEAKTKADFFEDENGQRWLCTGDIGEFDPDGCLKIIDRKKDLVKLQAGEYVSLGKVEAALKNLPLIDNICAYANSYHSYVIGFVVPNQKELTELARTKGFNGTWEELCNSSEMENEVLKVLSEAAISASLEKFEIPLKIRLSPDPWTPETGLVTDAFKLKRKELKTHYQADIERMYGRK", "experiment": "radiometric acyl-CoA synthetase assay, […] inhibition at […]", "assay_type": "cell-based", "details": "read-out: % inhibition at 10 μM"}},
  "note": "Read-outs that look alike come from different tables or passages of the source.",
  "data": [
    {"smiles": "CCCCC/C=C\\C/C=C\\C/C=C\\C/C=C\\CCCC(=O)O", "note": "[AA, arachidonic acid]", "values": [
      {"measurement": "Km", "setting": "[1]", "value": "4.98 ± 1.41", "unit": "µM"}
    ]},
    {"smiles": "CC/C=C\\C/C=C\\C/C=C\\C/C=C\\C/C=C\\C/C=C\\CCC(=O)O", "note": "[DHA, docosahexaenoic acid]", "values": [
      {"measurement": "Km", "setting": "[2]; read-out: Substrate / DHA", "value": "26.6 ± 3.95", "unit": "µM"}
    ]},
    {"smiles": "CCCC(CCC)C(=O)O", "note": "[VPA, valproate]", "values": [
      {"measurement": "Ki", "setting": "[3]", "value": "24.9 ± 2.61", "unit": "mM"}
    ]},
    {"smiles": "CCCCCCCCCCCCCCCC(=O)O", "note": "[palmitic acid]", "values": [
      {"measurement": "Km", "setting": "[2]; read-out: Substrate / Palmitic Acid", "value": "16.7 ± 6.25", "unit": "µM"}
    ]},
    {"smiles": "CCC/C=C/C/C=C/C=C/C=N/NN=O", "note": "[triacsin C]", "values": [
      {"measurement": "inhibition at 10 µM", "setting": "[4]", "value": 85, "unit": "%"},
      {"measurement": "inhibition at 10 µM", "setting": "[5]", "value": 90, "unit": "%"}
    ]}
  ]
}
